Assays:
human GPR40 receptor [1] = target: T1, human GPR40 receptor (Homo sapiens, UniProt O14842); test: IP1 accumulation measurements using the IPOne assay system; format: cell-based; details: IP1 accumulation (IPOne HTRF), 1 hour stimulation; 1321N1 cells stably expressing human GPR40; read-out: EC50 values on GPR40 determined as described in (B)
Procedure, shortened: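 1321N1 cells stably expressing human GPR40 were stimulated with compounds for 1 h at 37° in pH 7.4 HEPES buffer with 50 mM final LiCl. IP1 accumulation was then read by HTRF (IP1-d2/anti-IP1 Tb cryptate) after 1 h lysis at room temperature.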

human GPR40 receptor [2] = target: T1, human GPR40 receptor; test: Cytosolic calcium measurement using the FLIPR system; format: cell-based; details: FLIPR cytosolic Ca2+ peak height; 1321N1 cells stably expressing human GPR40; read-out: EC50 values on GPR40 determined as described in (A)
Procedure: (A) Cytosolic calcium measurement using the FLIPR system—1321N1 cells stably expressing human GPR40 receptor (Euroscreen, Belgium) were seeded 24 h before the assay in black clear-bottom collagen-coated 384-well plates in culture medium containing 10% FCS, 1% Na-Pyruvate and 400 μg/ml G418. On the assay day, wells were washed twice with 100 μL Krebs Ringer Buffer (KRB) containing 15 mM sodium hydrogencarbonate and 30 mM Hepes leaving 20 μl rest volume per well. Prior to stimulation the cells were loaded with the Ca^2+-sensitive fluorescent dye from the Calcium4 Assay Kit™ according to the Manufacturer's description (MDS Analytical technologies, Ismaning, Germany) for 80 min at room temperature in the dark, in the presence of 4 mM probenicid. Changes in cytosolic Ca^2+ concentration upon compound addition were monitored using a FLIPR Tetra device (Fluorescence Imaging Plate Reader; MDS Analytical technologies). The peak height of the obtained fluorescence signal was then used to calculate the EC50 values using GraphPad Prism 5 (Graphpad Software Inc, USA) using a sigmoidal curve fitting procedure allowing for a variable hill slope.

T1 sequence (O14842 whole entry): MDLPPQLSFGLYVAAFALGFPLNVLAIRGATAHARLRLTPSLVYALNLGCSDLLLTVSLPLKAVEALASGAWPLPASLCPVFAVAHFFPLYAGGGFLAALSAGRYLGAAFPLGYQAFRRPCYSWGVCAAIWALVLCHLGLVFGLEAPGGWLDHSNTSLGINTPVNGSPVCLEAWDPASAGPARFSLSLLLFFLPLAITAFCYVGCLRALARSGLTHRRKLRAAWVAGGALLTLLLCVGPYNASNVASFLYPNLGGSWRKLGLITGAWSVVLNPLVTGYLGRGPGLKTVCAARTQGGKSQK

Structure (SMILES)	EC50 (human GPR40 receptor [1]) [µM]	EC50 (human GPR40 receptor [2]) [µM]
O=C(O)C[C@H]1COc2cc(O[C@H]3CCc4c3cccc4C(F)(F)F)ccc21 (stereo in doubt) [3/4, [6-(4-Trifluoromethyl-indan-1-yloxy)-2,3-dihydro-benzofuran-3-yl]-acetic acid]	0.501	0.186
Cn1cc(-c2cccc3c2CC[C@H]3Oc2ccc3c(c2)OCC3CC(=O)O)cn1 (stereo partly drawn) [Example 7, {6-[(R)-4-(1-Methyl-1H-pyrazol-4-yl)-indan-1-yloxy]-2,3-dihydro-benzofuran-3-yl}-acetic acid]	2	0.71
O=C(O)CC1COc2cc(O[C@@H]3CCc4c(C5=CCOCC5)cccc43)ccc21 (stereo partly drawn) [Example 8, {6-[(R)-4-(3,6-Dihydro-2H-pyran-4-yl)-indan-1-yloxy]-2,3-dihydro-benzofuran-3-yl}-acetic acid]	1.57	0.312
Cn1ccc(-c2cccc3c2CC[C@H]3Oc2ccc3c(c2)OCC3CC(=O)O)cc1=O (stereo partly drawn) [Example 9, {6-[(R)-4-(1-Methyl-2-oxo-1,2-dihydro-pyridin-4-yl)-indan-1-yloxy]-2,3-dihydro-benzofuran-3-yl}-acetic acid]	> 10	3.25
COc1ccc(-c2cccc3c2CC[C@H]3Oc2ccc3c(c2)OCC3CC(=O)O)cc1 (stereo partly drawn) [Example 10, {6-[(R)-4-(4-Methoxy-phenyl)-indan-1-yloxy]-2,3-dihydro-benzofuran-3-yl}-acetic acid]	0.178	0.333
COC(c1cccc2c1CCC2Oc1ccc2c(c1)OCC2CC(=O)O)C(F)F (stereo not drawn) [Example 11, {6-[4-(2,2-Difluoro-1-methoxy-ethyl)-indan-1-yloxy]-2,3-dihydro-benzofuran-3-yl}-acetic acid]	2.23	0.628
O=C(O)CC1COc2cc(O[C@@H]3CCc4c(C5CCOCC5)cccc43)ccc21 (stereo partly drawn) [Example 12, {6-[(R)-4-(Tetrahydro-pyran-4-yl)-indan-1-yloxy]-2,3-dihydro-benzofuran-3-yl}-acetic acid]	2.69	0.459
COC(c1cccc2c1CCC2Oc1ccc2c(c1)OCC2CC(=O)O)C(C)(C)C (stereo not drawn) [Example 13, {6-[4-(1-Methoxy-2,2-dimethyl-propyl)-indan-1-yloxy]-2,3-dihydro-benzofuran-3-yl}-acetic acid]	0.043	0.583
COC(c1cccc2c1CCC2Oc1ccc2c(c1)OC[C@H]2CC(=O)O)C1CCC1 (stereo partly drawn) [Example 14, {(S)-6-[4-(Cyclobutyl-methoxy-methyl)-indan-1-yloxy]-2,3-dihydro-benzofuran-3-yl}-acetic acid]	0.125	0.364
CC1(C)CCCC1c1cccc2c1CC[C@H]2Oc1ccc2c(c1)OCC2CC(=O)O (stereo partly drawn) [Example 16, {6-[(R)-4-(2,2-Dimethyl-cyclopentyl)-indan-1-yloxy]-2,3-dihydro-benzofuran-3-yl}-acetic acid]	0.047	3.19
O=C(O)C[C@@H]1COc2cc(O[C@@H]3CCc4c(OC(F)F)cccc43)ccc21 [Example 17, {(S)-6-[(R)-4-Difluoromethoxy-indan-1-yloxy]-2,3-dihydro-benzofuran-3-yl}-acetic acid]	0.139	0.111
COC1(c2cccc3c2CC[C@H]3Oc2ccc3c(c2)OC[C@H]3CC(=O)O)CCC1 [Example 18, {(S)-6-[(R)-4-(1-Methoxy-cyclobutyl)-indan-1-yloxy]-2,3-dihydro-benzofuran-3-yl}-acetic acid]	0.162	0.021

Reference: US20120302566A1, “INDANYLOXYDIHYDROBENZOFURANYLACETIC ACIDS” (BOEHRINGER INGELHEIM INTERNATIONAL GMBH, priority 2010, published 2012)
